Experimental data from ChEMBL document CHEMBL1128077, “6,3'-Dinitroflavone, a novel high affinity ligand for the benzodiazepine receptor with potent anxiolytic properties” (Bioorg Med Chem Lett, 1995).

Target: GABA-A receptor; anion channel
Experiment: Inhibition of [3H]flunitrazepam binding to GABA-A central benzodiazepine receptor of bovine cerebral cortical membranes
Set-up: species or system Bos taurus

| Compound | Ki [µM] |
| --- | --- |
| O=c1cc(-c2cccc([N+](=O)[O-])c2)oc2ccc([N+](=O)[O-])cc12 | 0.012 |
| O=c1cc(-c2ccc([N+](=O)[O-])cc2)oc2ccc([N+](=O)[O-])cc12 | 17 |
